SMILES strings stand for the structures.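 The compound was tested at five concentrations on cells cultured in 96-well plates, with a 48-hour exposure period. GI50: concentration for 50% inhibition of growth.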 Activity calls are given as the source filed them. No stated cut-off is given here; in the data, active = GI50 up to about 1.1 µM and inactive = higher.

Among the test systems are NCI/ADR-RES; UACC-257; UACC-62; T47D; U-251; BT-549; 786-0; SR; HCT-15; UO-31; HOP-62; SNB-19; NCI-H226; COLO 205; MCF7; ACHN; LOX IMVI; RPMI-8226; OVCAR-8.
Holding throughout (test): NCI tumour cell line growth inhibition, 48 h

Consider `CCCCCCCCC/C=C1/CC(CO)(COC(=O)c2ccccc2)OC1=O` (stereo not given), for which the GI50 is 15.5 µM (inactive) with NCI/ADR-RES; 14.2 µM (inactive) with UACC-257; 14.7 µM (inactive) in the experiment on UACC-62; 11.5 µM (inactive) with T47D; 14 µM (inactive) with U-251; 14.1 µM (inactive) in the experiment with BT-549. Moreover, the GI50 in the experiment on 786-0 is 10.4 µM (inactive); in the experiment with SR, 17.9 µM (inactive); with HCT-15, 16.3 µM; in the experiment on UO-31, 13 µM (inactive); in the experiment on HOP-62 it was 4.92 µM (inactive); in the experiment on SNB-19, 15.4 µM (inactive). Besides, the GI50 in the experiment with NCI-H226 is 10.5 µM (inactive); in the experiment with COLO 205, 1.85 µM (inactive); with MCF7, 16.3 µM (inactive); with ACHN, 12.4 µM (inactive).
As for `Nc1c(S(N)(=O)=O)cc(S(N)(=O)=O)cc1S(N)(=O)=O`, the GI50 with NCI/ADR-RES, in the experiment on UACC-257, with UACC-62, in the experiment on T47D, in the experiment on U-251 and with BT-549 was > 100 µM (inactive) in each case. Also, the GI50 in the experiment with 786-0 was > 100 µM (inactive); with HCT-15, greater than 100 µM; in the experiment with LOX IMVI it was > 100 µM (inactive); in the experiment on UO-31 it was > 100 µM (inactive); with HOP-62 it was > 100 µM (inactive); in the experiment on SNB-19 it was > 100 µM (inactive). Moreover, the GI50 in the experiment with NCI-H226, with RPMI-8226, with COLO 205, with MCF7, with ACHN and with OVCAR-8 was > 100 µM (inactive) each time.
Turning to `Br[C@@H]1[C@H]2c3nc4ccccc4nc3[C@@H]1C[C@H]2Br`, the GI50 was 51.4 µM (inactive) with NCI/ADR-RES; 83.6 µM (inactive) with UACC-257; > 100 µM (inactive) with UACC-62; 36.8 µM (inactive) in the experiment on T47D; 69.2 µM (inactive) in the experiment on U-251; 65.5 µM (inactive) with BT-549. Further, the GI50 with 786-0 was > 100 µM (inactive); in the experiment on SR, 48.9 µM (inactive); with HCT-15 it was 61.5 µM; with LOX IMVI, > 100 µM (inactive); in the experiment with UO-31, 41.4 µM (inactive); in the experiment on HOP-62 it was > 100 µM (inactive). Also, the GI50 with SNB-19 is > 100 µM (inactive); in the experiment on NCI-H226 it was 31.3 µM (inactive); in the experiment with COLO 205 it was 45.7 µM (inactive); in the experiment with MCF7, 81.7 µM (inactive); in the experiment with ACHN, > 100 µM (inactive); in the experiment on OVCAR-8 it was > 100 µM (inactive).
`CC1=NN(c2nc(N)nc(CSc3cc(Cl)c(C)cc3S(N)(=O)=O)n2)C(C)(C)C1`: the GI50 with NCI/ADR-RES, with UACC-257, in the experiment with UACC-62, with T47D, with U-251 and with BT-549 was > 10 µM (inactive) throughout. The GI50 in the experiment with 786-0 is > 10 µM (inactive); in the experiment on HCT-15, greater than 10 µM; in the experiment on LOX IMVI, > 10 µM (inactive); with UO-31 it was 0.543 µM (active); in the experiment on HOP-62, > 10 µM (inactive); in the experiment with SNB-19 it was > 10 µM (inactive). The GI50 in the experiment on NCI-H226, in the experiment on RPMI-8226, in the experiment on COLO 205, in the experiment on MCF7, with ACHN and with OVCAR-8 was > 10 µM (inactive) each time.
